# Legend:
# [1] = tested on: MIA-damaged articular cartilage; assay: Histological examination (H&E) of MIA-damaged articular cartilage; type: in vivo, rat; settings: 29-mer/HA from day 8 post-MIA for 2 weeks
# Description: (§1) Adult 10-wk-old male Sprague-Dawley rats (initial body wt=312±11 g) were anesthetized by an intraperitoneal injection of Xylazine (10 mg/kg). After that, their right knees were each treated with a single intraarticular injection of 1 mg of MIA in 25 μl of sterile saline. The solution was injected through the patellar ligament using a 27 G needle with the leg flexed at a 90° angle at the knee. Seven days after MIA injection, the […] were randomly assigned to different experimental groups (n 3, each group). For treatments of the rat model of MIA-induced OA, PDSP peptide was dissolved in 25 μl of 1% HA, and the peptide solvent DMSO was used as a vehicle/HA control.
# The knee joints were dissected, and the surrounding soft tissue was removed. Specimens were fixed in a 4% paraformaldehyde (PFA) solution and then were decalcified with Shandon TBD-2 decalcifier (Thermo Scientific, Logan, Utah). The joints were then sectioned mid-sagittally and embedded in paraffin blocks. Sections (5 μm in thickness) were longitudinally cut and stained with hematoxylin and eosin (H&E) or used for immunohistochemical examination. 20 sections per knee were carefully prepared so as to include the most severely degenerated area.
# It has been established that rat knee joints injected with MIA can result in extensive chondrocyte degeneration/necrosis at day 7 post-MIA treatment in a rapid and reproducible manner. […]
# [2] = tested on: rat model of MIA-induced OA; assay: MIA-induced hind paw weight-bearing shift (incapacitance tester), rat OA model; type: in vivo; settings: for MIA-induced weight shift (hind paw weight-bearing): vehicle/HA 75.9±4.7%
# Description: as §1
# Changes in hind paw weight distributions between the right (osteoarthritic) and left (contralateral control) limbs were used as an index of joint discomfort in the osteoarthritic knee. An incapacitance tester was employed for determination of hind paw weight distributions, as previously described (Bove et al., Weight bearing as a measure of disease progression and efficacy of anti-inflammatory compounds in a model of monosodium iodoacetate-induced osteoarthritis. Osteoarth Cart., 2003; 11:821-830). Rats were placed in an angled plexiglass chamber positioned so that each hind paw rested on a separate force plate. The force exerted by each hind limb (measured in grams) is averaged over a 5-s period. Each data point is the mean of three, 5-s readings. The change in hind paw weight distribution was calculated by determining the difference in the amounts of weights (g) exerted on the tester between the left and right limbs. Results are presented as either the difference in weight bearing between the left (contralateral control) limb and right (osteoarthritic) limbs or as the percent difference between the baseline reading and the post-treatment reading, as calculated using the following equation:
# (1−(mean Δweight of treated group/mean Δ weight of vehicle group))×(100)
# To investigate whether PDSP (PEDF short peptide) has antinociceptive effects to ameliorate the joint discomfort, 10-wk-old male Sprague-Dawley rats (n=15) were subjected to intraarticular injection of 1 mg of MIA (dissolved in 25 μl of sterile saline) into right joint to induce a maximum degree of weight shift (from right to left leg) and then used to investigate the pharmacologic response of the 29-mer PDSP (SEQ ID NO:1). […]
# In the animal study, the 29-mer PDSP variants were formulated into 1% HA to final a concentration of 0.2 mM and then applied by way of a single intraarticular injection each on day 1 and day 8 post-MIA injection. After 29-mer variant treatments for 14 days, the antinociceptive effects of the 29-mer variants (n=3 per group) on MIA-induced hind paw weight-bearing shifts were evaluated with an incapacitance tester.
# [3] = tested on: rat MSCs; assay: Chondrogenic differentiation of MSCs, GAG by Alcian blue staining; type: cell-based; settings: 10 μM peptide in medium with dexamethasone and TGF-β3, 21 days; DMSO control 0.15±0.024
# Description: Adult 8-wk-old male Sprague-Dawley rats were anesthetized with an intraperitoneal injection of Xylazine (10 mg/kg). After that, their femurs were aseptically harvested, washed in a mixture of PBS and antibiotics for 5 minutes, and then they were dissected off of all soft tissue, transected at their epiphysis, and their marrow cavity rinsed repeatedly with a mixture of heparin (AGGLUTEX INJ 5000 U/ML 5 ML; working conc. 100 U/ml) and DMEM. The harvested cells were collected, dispersed by pipetting, and centrifuged at 1000×g for 5 minutes at RT. Cell pellets were resuspended with DMEM, and then the cell suspension was transferred to a 15-ml centrifuge tube containing 5 ml of Percoll (1.073 g/ml). […]
# For Alcian blue staining, cultures were rinsed twice with PBS, fixed in 4% (w/v) paraformaldehyde for 15 min, and then incubated in 1% (w/v) Alcian blue 8-GX (Sigma) in 0.1 N HCl (pH 1.0) overnight as previously described (Ji Y. H. et al., Quantitative proteomics analysis of chondrogenic differentiation of C3H10T1/2 mesenchymal stem cells by iTRAQ labeling coupled with on-line two-dimensional LC/MS/MS, Mol. Cell. Proteom., 2010, 9(3): 550-564.). For semi-quantitative analysis, Alcian blue-stained cultures were extracted with 6 M guanidine HCl for 2 h at room temperature. The absorption of the extracted dye was measured at 650 nm in a microplate reader (Bio-Rad). […]
# [4] = tested on: chondrogenic cells in damaged articular cartilage; assay: In vivo DNA synthesis: BrdU / Sox9 staining of damaged articular cartilage, MIA-induced OA; parameters: species or system rat
# Description: as §1
# For detection of cell proliferation, BrdU was reconstituted in DMSO as stock (80 mM). […] DNA synthesis was assessed by BrdU labeling, as detected with anti-BrdU antibodies.
# To detect DNA synthesis in vivo, paraffin-embedded joint specimens were deparaffinized in xylene and rehydrated in a graded series of ethanol and then exposed to 1 N HCl at RT for 1 h for subsequent immunohistochemistry. […] Images were captured using a Zeiss epifluorescence microscope with a CCD camera and measured from 20 randomly-selected areas in each sample, and blind quantification was performed in triplicate by manually counting within each section. […]
sequence,measurement,setting,value
"SLGAEQRTESIIHRALYYDLISSPDIHGT (in 1% hyaluronic acid; listed as Homo sapiens) [29-mer, PEDF-derived short peptide, human PEDF residues 93-121]","Chondrocytes in cartilage, H&E histology",[1]; vehicle/HA: chondrocytes lost from superficial zone,large numbers of newly generated chondrocytes throughout the cartilage
same,"Cartilage integrity, H&E histology",[1]; vehicle/HA: loss of cartilage integrity,good surface continuity
same,MIA-induced weight shift (hind paw weight-bearing),"[2]; group II: 0.2 mM 29-mer in 1% HA, intraarticular on day 1, 4, 8, 12 (twice per week), 14 days",63.3±12.5%
same,MIA-induced weight shift (hind paw weight-bearing),"[2]; group III: 29-mer alone (bolus, without HA), intraarticular day 1, 4, 8, 12",77.2±1.2%
same,MIA-induced weight shift (hind paw weight-bearing),"[2]; group IV: 29-mer/HA, intraarticular once on day 1 and day 8 (once per week), 14 days",58.1±4.6%
same,MIA-induced hind paw weight-bearing shift,"[2]; variant study (FIG. 4): 0.2 mM peptide in 1% HA, intraarticular day 1 and day 8, after 14 days, vehicle/HA 47.1±3.7%",22.0±0.66%
same,Alcian blue-positive material (GAG) at OD 650 nm,[3],0.34±0.013
same,Sox9 immunostaining of BrdU-positive cells,"[4]; 0.2 mM 29-mer/HA, dual immunostaining, FIG. 5A",BrdU-positive cells were also Sox9 positive
same,BrdU-positive cells per field of cartilage region,"[4]; 0.2 mM peptide in 1% HA, 14 days treatment, vehicle/HA 7±3",346±57

# Source: patent US20210221862A1, “APPLICATION OF PEDF-DERIVED SHORT PEPTIDES IN THE TREATMENT OF OSTEOARTHRITIS” (BRIM Biotechnology, Inc., priority 2018, published 2021)
